The results in this text go back to article PMC9551036, “A selective and orally bioavailable VHL-recruiting PROTAC achieves SMARCA2 degradation in vivo” (Nature Communications, 2022).

In test [1] the target is T1, VCB: PROTAC: SMARCA2^BD ternary complex (Homo sapiens, UniProt P51531).
T1 construct: P51531-2, residues 1373-1493 with additional N-terminal SM residues; GST (TEV site) (N); His6 (TEV site) (N, cleaved yes); made in house; host or cells: SMARCA2^BD: Escherichia coli BL21(DE3)
The experiment in a line: TR-FRET ternary complex affinity and cooperativity, SMARCA2. Format: binding. On the technique in general: Time-resolved FRET reads energy transfer from a long-lived donor to a nearby acceptor.

For a further test, the target named is T2, PBRM1 BD (Homo sapiens, UniProt Q86U86).
T2 construct: GST (TEV site) (N); made in house; host or cells: Escherichia coli BL21(DE3)
The experiment in a line: TR-FRET binary and ternary (PROTAC + VCB) affinity, PBRM1 bromodomain. It counts as binding. Conditions: individual replicates.

A further test has as its target T3, PBRM1BD5 (Homo sapiens, UniProt Q86U86).
T3 construct: GST (TEV site) (N); His6 (TEV site) (N, cleaved yes); made in house; host or cells: PBRM1^BD5: Escherichia coli BL21(DE3)
The experiment in a line: TR-FRET ternary complex affinity and cooperativity, PBRM1. Format: binding. Conditions: TR-FRET competition for PBRM1BD5, without VCB; mean ± SD; read-out: TR-FRET PBRM1BD EC50.

Test [2] has as its target T4, SMARCA4 (Homo sapiens, UniProt P51532). The experiment in a line: SMARCA4 capillary electrophoresis protein assay in RKO cells. Format: cell-based. Set-up: endogenous in cells; host or cells: RKO, HCT116, LU99, HCC-364, HCT-15, HCC4006, SK-N-AS. Conditions: mean ± SD. Here is the method: 130,000–200,000 cells were seeded in 24-well plates and incubated until settled down or overnight. Compounds were dissolved in DMSO and added to cells in indicated concentrations using a digital dispenser following an optional media change. Cells were incubated for 4 or 18 h as indicated. For SMARCA2/4 half-life determination, 150,000 or 200,000 cells were seeded in 24-well plates. The next day, 50 µg/ml cycloheximide (Sigma) was added and cells were incubated for 1–24 h. For SMARCA2/4 re-synthesis measurements, 200,000 cells were seeded in 24-well plates. The next day, 100 nM compound 6 was added for 4 h to degrade SMARCA2/4, and a sample was taken as baseline for normalisation. To allow re-synthesis, a VHL binder (compound 32, 25 or 50 µM) was then added for 3 or 24 h. Medium was removed, cells were washed with PBS and lysed with 80 µl Lysis Buffer (MSD Tris Lysis Buffer (#R60TX-2) + Halt Inhibitor Cocktail (100x) + Benzonase 0.5 µL/ml). Samples were frozen at −80 °C and thawed at room temperature before use. Samples were transferred to a V-bottom plate and insoluble debris was pelleted by centrifugation for 5 min at maximum speed. The supernatant was transferred to a fresh plate. Master Mix and Ladder were prepared according to manufacturer’s instructions for 12–230 kDa Wes Separation Module, 8 × 25 capillary cartridges, Protein Simple #SM-W004 with Anti-Rabbit Detection Module for Wes, Peggy Sue or Sally Sue, Protein Simple #DM-001. 4.8 µl lysate were mixed with 1.2 µl Master Mix to achieve a protein concentration of ~0.5 µg/µl. Antibodies were diluted in Antibody Diluent II (SMARCA2 Sigma #HPA029981 RRID:AB_10602406 1:25–100, SMARCA4 Cell Signalling #49360 clone D1Q7F RRID:AB_2728743 1:15–120 or Abcam #ab110641 clone EPNCIR111A RRID:AB_10861578 1:60, GAPDH Abcam #ab9485 RRID:AB_307275 1:250). Wes plates were prepared and run according to manufacturer’s instructions. Proteins were quantified with accompanying Compass Software. SMARCA2/4 protein levels were normalised to GAPDH. […] Where applicable, curves were fitted using a 4-parametric logistic model.

Test [3] addresses T4, SMARCA4. The experiment in a line: Imaging-based SMARCA4 protein assay in RKO cells. Format: cell-based. Set-up: endogenous in cells; host or cells: RKO, HCT116, LU99, HCC-364, HCT-15, HCC4006, SK-N-AS. Conditions: individual replicates. On the procedure:
1250 cells per well in 60 µl medium were plated in flat bottom, poly-lysin coated 384-well plates (CellCarrier Ultra, Perkin Elmer). The next day, test compounds (10 µl of serial dilutions) and DMSO controls were diluted in DMEM medium such that the final DMSO content was <1% or were added using an ultrasound dispensing system. 4 wells were reserved for a background measurement. […] After aspirating the fixing solution, the cells were washed once with 25 µl PBS. 25 µl of blocking buffer (10% goat serum in PBS) was added and cells were incubated for 30 min, then washed once with PBS. Cells were stained with 20 µl of SMARCA2/4 primary antibody solution (Sigma #HPA029981 RRID:AB_10602406 1:1000 or Cell Signalling #52251 clone E9O6 RRID:AB_2799410 1:1000 in PBS with 10% FCS) for 2–4 h at room temperature. Cells were again washed once with PBS. […] The cell layer was then washed once with 25 µl PBS, the wells were filled with 25 µl PBS and the plates were sealed with an adhesive sheet. They were then imaged on the Opera Phoenix (mean intensity in the nucleus). Results were computed as percent of controls ((value of test compound − background)/(value of the negative control DMSO—background) multiplied by 100). EC50 values were computed using a 4-parametric logistic model.

In test [4] the target is VCB: PROTAC: SMARCA2^BD ternary complex (Homo sapiens, UniProt P40337+P51531). The experiment in a line: TR-FRET ternary complex affinity and cooperativity, SMARCA2. Set-up: P51531-2, residues 1373-1493 with additional N-terminal SM residues; GST (TEV site) (N); His6 (TEV site) (N, cleaved yes); made in house; host or cells: SMARCA2^BD: Escherichia coli BL21(DE3). It counts as binding.

Molecules are shown by their SMILES. “And” between values parts separate entries of the source, which are not always exact repeats. Equal values may be shown once. Read-outs that look alike come from different tables or passages of the source.

Sequence of VCB: PROTAC: SMARCA2^BD ternary complex (Homo sapiens, UniProt P40337+P51531) (P51531 with tags, fused parts or gaps isoform P51531-2): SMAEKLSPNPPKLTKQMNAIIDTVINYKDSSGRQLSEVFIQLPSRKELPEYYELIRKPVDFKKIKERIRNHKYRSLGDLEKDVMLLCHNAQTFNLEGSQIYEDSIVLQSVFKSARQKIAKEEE
Sequence of VCB: PROTAC: SMARCA2^BD ternary complex (Homo sapiens, UniProt P40337+P51531) (P40337 54-213): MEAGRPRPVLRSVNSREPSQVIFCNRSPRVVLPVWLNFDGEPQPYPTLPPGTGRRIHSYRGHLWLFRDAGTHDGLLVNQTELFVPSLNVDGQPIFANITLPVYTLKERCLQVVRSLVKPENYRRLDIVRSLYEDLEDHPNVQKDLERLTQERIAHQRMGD
Sequence of VCB: PROTAC: SMARCA2^BD ternary complex (Homo sapiens, UniProt P40337+P51531) (Q15369 17-112 partner): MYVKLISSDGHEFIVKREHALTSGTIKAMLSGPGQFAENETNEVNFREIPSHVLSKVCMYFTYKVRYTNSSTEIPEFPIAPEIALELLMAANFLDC
Sequence of VCB: PROTAC: SMARCA2^BD ternary complex (Homo sapiens, UniProt P40337+P51531) (Q15370 1-104 partner): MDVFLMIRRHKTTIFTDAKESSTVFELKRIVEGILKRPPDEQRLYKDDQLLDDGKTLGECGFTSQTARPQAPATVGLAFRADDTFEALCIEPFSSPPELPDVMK
T1 sequence (P51531 with tags, fused parts or gaps isoform P51531-2): as the sequence (P51531 with tags, fused parts or gaps isoform P51531-2) above
T4 sequence (P51532 whole entry): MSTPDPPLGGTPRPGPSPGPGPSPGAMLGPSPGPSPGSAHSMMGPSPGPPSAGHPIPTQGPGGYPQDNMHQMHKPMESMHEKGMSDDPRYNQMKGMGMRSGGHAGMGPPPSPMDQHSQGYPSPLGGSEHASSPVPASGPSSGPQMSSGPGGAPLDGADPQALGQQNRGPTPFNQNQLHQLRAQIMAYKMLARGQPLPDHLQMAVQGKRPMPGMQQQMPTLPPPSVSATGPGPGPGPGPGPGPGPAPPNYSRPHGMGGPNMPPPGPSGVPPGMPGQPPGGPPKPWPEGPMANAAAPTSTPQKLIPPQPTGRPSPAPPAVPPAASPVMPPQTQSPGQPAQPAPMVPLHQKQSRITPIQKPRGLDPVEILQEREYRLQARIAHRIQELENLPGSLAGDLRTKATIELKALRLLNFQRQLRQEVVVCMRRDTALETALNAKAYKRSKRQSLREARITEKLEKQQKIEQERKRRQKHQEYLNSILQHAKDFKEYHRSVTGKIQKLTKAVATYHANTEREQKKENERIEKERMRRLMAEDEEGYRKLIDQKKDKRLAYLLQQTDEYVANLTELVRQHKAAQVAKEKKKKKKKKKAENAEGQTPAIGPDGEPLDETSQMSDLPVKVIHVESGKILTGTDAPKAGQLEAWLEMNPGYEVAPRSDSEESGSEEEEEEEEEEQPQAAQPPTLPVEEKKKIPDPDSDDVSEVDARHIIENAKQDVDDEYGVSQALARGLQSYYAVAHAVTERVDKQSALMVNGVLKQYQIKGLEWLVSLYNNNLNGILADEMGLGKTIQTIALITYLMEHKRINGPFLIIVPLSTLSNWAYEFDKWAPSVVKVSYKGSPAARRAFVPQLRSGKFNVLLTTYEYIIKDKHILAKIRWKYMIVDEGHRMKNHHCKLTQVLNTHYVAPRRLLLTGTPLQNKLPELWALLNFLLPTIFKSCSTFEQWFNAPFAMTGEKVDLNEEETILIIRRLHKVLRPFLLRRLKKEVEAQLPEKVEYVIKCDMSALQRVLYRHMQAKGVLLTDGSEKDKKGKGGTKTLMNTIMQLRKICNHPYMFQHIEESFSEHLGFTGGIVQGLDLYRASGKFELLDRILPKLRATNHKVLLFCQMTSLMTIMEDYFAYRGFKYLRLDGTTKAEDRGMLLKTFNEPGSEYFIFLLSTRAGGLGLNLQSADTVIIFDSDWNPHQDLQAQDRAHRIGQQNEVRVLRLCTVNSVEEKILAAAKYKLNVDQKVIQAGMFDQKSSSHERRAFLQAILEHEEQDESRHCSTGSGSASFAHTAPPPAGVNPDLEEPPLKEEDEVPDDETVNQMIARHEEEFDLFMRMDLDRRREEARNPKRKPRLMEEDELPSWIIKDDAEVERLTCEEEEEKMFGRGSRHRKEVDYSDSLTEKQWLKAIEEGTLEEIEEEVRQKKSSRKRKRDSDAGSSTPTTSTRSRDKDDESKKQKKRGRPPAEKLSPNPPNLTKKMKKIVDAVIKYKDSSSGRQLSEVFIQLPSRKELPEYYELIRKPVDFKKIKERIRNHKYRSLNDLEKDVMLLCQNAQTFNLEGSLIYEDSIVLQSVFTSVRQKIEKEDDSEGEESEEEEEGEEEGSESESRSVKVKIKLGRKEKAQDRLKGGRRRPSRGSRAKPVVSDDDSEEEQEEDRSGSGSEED
T3 sequence (Q86U86 645-766): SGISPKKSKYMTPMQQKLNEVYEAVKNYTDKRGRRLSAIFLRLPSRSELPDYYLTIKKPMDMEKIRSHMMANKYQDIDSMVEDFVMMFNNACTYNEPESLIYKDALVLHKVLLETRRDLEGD

For `Cc1ncsc1-c1ccc(CNC(=O)[C@@H]2C[C@@H](O)CN2C(=O)[C@@H](NC(=O)C2(F)CC2)C(C)(C)C)c(OCCOCCOCCOCCN2CCC(c3ccc4c(c3)n(C3CCCC3)c3nc(=O)c5c(Br)cccc5n43)CC2)c1` [compound 22], the EC50 was 274 ± 41 nM in test [1] (TR-FRET competition for SMARCA2BD, without VCB, mean ± SD, read-out: TR-FRET SMARCA2BD EC50); 242 nM and 328 nM and 288 nM and 245 nM in test [1] (binary, PROTAC alone, individual replicates, read-out: SMARCA2 BD EC50); 33.2 nM and 39.2 nM and 42.6 nM on PBRM1 BD (PROTAC + VCB, read-out: Ternary PBRM1 BD EC50 (PROTAC + VCB)); 84.2 nM and 107 nM and 111 nM (2×) at PBRM1 BD (binary, PROTAC alone, read-out: PBRM1 EC50); 103 ± 13 nM on PBRM1BD5; 95.1 nM and 86.8 nM and 90.2 nM and 144 nM in test [4] (PROTAC + VCB, individual replicates, read-out: Ternary SMARCA2 BD EC50 (PROTAC + VCB)). In test [4] (TR-FRET competition for SMARCA2BD, + VCB, mean ± SD, read-out: TR-FRET Ternary SMARCA2BD EC50 (PROTAC + VCB)), the EC50 was 102 ± 27 nM. Further, the DC50 on SMARCA4 [2] (RKO (4 h)) is 54 ± 47 nM; at SMARCA4 [2] (RKO (18 h)), 77 ± 67 nM; at SMARCA4 [3] (4h, read-out: RKO (4h) SMARCA4 DC50), 32.8 nM and 118 nM and 40 nM; at SMARCA4 [3] (18h, read-out: RKO (18h) SMARCA4 DC50) it was 39.9 nM and 168 nM and 69.1 nM. Besides, the “SMARCA4 Dmax” value on SMARCA4 [2] (RKO (4 h)) is reported as 84 ± 1%; at SMARCA4 [2] (RKO (18 h)), 89 ± 5%.

One may read the EC50 as the concentration giving half of the maximal effect.
